{"source": "patent US20260355318A1", "about": "“MOLECULAR MACHINES FOR TREATMENT OF CANCER, FUNGAL INFECTIONS, OR BACTERIAL INFECTIONS” (priority 2022, published 2026)", "key": {"[1]": {"system": "E. coli", "assay": "MIC, E. coli", "format": "cell-based, Escherichia coli BW25113", "conditions": "E. coli, broth microdilution; for MIC: Escherichia coli, read-out: Antibiotic MIC"}, "[2]": {"system": "E. coli", "assay": "Checkerboard interaction with antibiotics (MIC, FIC index), E. coli", "format": "cell-based, Escherichia coli", "experimental": "To evaluate synergy between conventional antibiotics and MM in E. coli, the fractional inhibitory concentration (FIC) index (Hall et al., 1983) was determined using a modified checkerboard microtiter test in an 8-by-8 well configuration. Briefly, E. coli cell suspensions were prepared as described for MIC determination with an increasing concentration (0.1-40 μM) of the different MMs, followed by irradiation for 5 min at 146 mW cm^−2. […] The FIC was calculated after dividing the MIC of each antibiotic in combination with different MM by the MIC of the antibiotic alone. The FIC index, obtained by adding both FICs, was interpreted as indicating a synergistic effect if it was ≤0.5, as additive or indifferent if it was >0.5 and ≤2.0, and as antagonistic if it was >2.0 (Hall et al., 1983)."}, "[3]": {"assay": "Estimated rotation rate after light activation", "conditions": "for estimated rotation rate after light activation: based on known motors with similar core skeletons"}, "[4]": {"system": "C. albicans", "assay": "MIC, visible-light-activated MMs and conventional antifungals, C. albicans", "format": "cell-based, Candida albicans (ATCC 18804)", "conditions": "Candida albicans, read-out: MIC of antifungal agent", "experimental": "C. albicans cell suspensions were incubated with increasing concentrations of MMs and irradiated with 405-nm light at 292 mW cm^−2 for 5 min (87.6 J cm^−2). The minimum inhibitory concentration (MIC) was defined as the MM concentration resulting in no visible fungal growth after irradiation with 87.6 J cm^−2 of 405-nm light.\nCell suspensions for susceptibility testing (MMs and conventional antifungals) were prepared per the Clinical & Laboratory Standards Institute (CLSI) guidelines (CLSI, 2017; CLSI, 2008). Before testing, yeasts (C. albicans and S. cerevisiae) were sub-cultured in Sabouraud Dextrose Agar-Emmons Modification (SDAE) plates and grown for 24 h at 30 °C. Five independent colonies from 24-h-old plates were collected and diluted to ~10^4 colony forming units (CFU) per mL in sterile saline (CLSI, 2017). Molds (A. fumigatus and the dermatophytes T. rubrum and M. gypseum) were sub-cultured on SDAE medium and incubated for 7 days at 28 °C. Conidia were recovered by covering the plates with sterile distilled water and scraping the colonies. The suspensions were filtered (8-μm pore size) and diluted in saline to ~10^4 CFU mL^−1 (Santos and Hamdan, 2005).\nAfter a 30-min incubation in the dark, cell suspensions were transferred to small, sterilized glass beakers, which were then placed in a water bath. Each sample was irradiated with 405-nm light at 292 mW cm^−2 for 5 min, corresponding to a light dose of 87.6 J cm^−2, determined using an S415C thermal power sensor (Thorlabs, Newton, MA, USA). During irradiation, the cell suspensions were agitated with a small metal stirrer. A thermocouple probe (model SC-TT-K-30-36-PP; Omega Engineering, Inc., Stanford, CT, USA) was used to monitor the temperature during irradiation. Irradiated cell suspensions were inoculated in 3-(N-morpholino) propanesulfonic acid (MOPS)-buffered Roswell Park Memorial Institute Medium (RPMI) 1640 (pH 7.0). Tubes were incubated at 30 ° C for 48 h (yeasts) and 28 ° C for 7 days (molds). The antifungal or MM concentration resulting in no visible growth was defined as the minimum inhibitory concentration (MIC) (CLSI, 2017; CLSI, 2008). Similarly prepared cell suspensions were used to determine the MIC of conventional antifungals."}, "[5]": {"system": "C. albicans", "assay": "Killing of C. albicans by MM 1 in de-energized, inhibited, uncoupled cells or with scavengers", "format": "cell-based, Candida albicans", "conditions": "for effect of scavenger on MM-induced killing: MM 1 2×MIC", "experimental": "FIG. 8: Survival curves of de-energized versus exponential, fully energized cells of C. albicans treated with visible-light-activated MM 1 (2×MIC). Energy depletion of C. albicans was achieved by resuspending cells in de-energization buffer (1 μM antimycin A, 5 mM 2-deoxy-D-glucose, 50 mM HEPES buffer, pH 7.0) for 3 h, as described for the determination of efflux pump activity in Example 1. Survival curves were generated according to the procedure described in Example 1 for time-kill assays. The dashed line indicates the detection limit of the method. The results are expressed as the average of at least three independent replicates±the standard error of the mean.\nFIG. 9: Effect of pre-treatment with drugs targeting different individual components of the electron transport chain (see table inset) on the killing of C. albicans by light-activated MM 1 (2×MIC). Survival curves were generated according to the procedure described in Example 1 for time-kill assays. The dashed line indicates the detection limit of the method. The results are expressed as the average of at least three independent replicates±the standard error of the mean.\nFIG. 10: Effect of pre-treatment with the uncoupling agents carbonyl [COMPOUND LEFT OUT] 4-(trifluoromethoxy)phenylhydrazone (FCCP) and carbonyl [COMPOUND LEFT OUT] 3-chlorophenylhydrazone (CCCP) on the killing of C. albicans by light-activated MM 1 (2×MIC). Survival curves were generated according to the procedure described in Example 1 for time-kill assays. The dashed line indicates the detection limit of the method. The results are expressed as the average of at least three independent replicates #the standard error of the mean.\nSurvival curves were generated according to the procedure described in Example 1 for time-kill assays. The dashed line indicates the detection limit of the method. The results are expressed as the average of at least three independent replicates±the standard error of the mean.\nFIGS. 12A-12C show the effect of growth in the presence of different reactive oxygen species (ROS) scavengers and the iron scavenger 2,2′-dipyridyl (DP) on MM 1-induced killing of C. albicans. […] The results are expressed as the average of at least three independent replicates±the standard error of the mean. (FIG. 12B) Growth curves of C. albicans in the presence and absence of the iron scavenger DP, determined by monitoring the absorbance at 630 nm over time in a microplate reader. […] (FIG. 12C) Time profiles of mitochondrial ROS levels in C. albicans grown with and without DP after treatment with visible-light-activated MM 1 (2×MIC), detected with the MitoROS™ 580 fluorescent probe, according to the experimental procedure described in Example 1. […]"}, "[6]": {"system": "P. aeruginosa", "assay": "MIC, P. aeruginosa", "format": "cell-based, Pseudomonas aeruginosa", "experimental": "(§1) The appropriate volume of an MM stock at 8 mM necessary to achieve a concentration ranging from 0.3125 to 40 μM was pipetted into a 2 mL microcentrifuge tube to which 1 mL of cell suspension prepared as previously described was added. Corresponding negative controls (DMSO only) were prepared in the same way. The mixture was gently mixed by pipetting and incubated in the dark at 30 or 37 ° C, depending on the strain, for 30 min with agitation (220 rpm). Afterward, MM- or DMSO-treated cells were dispensed in one well of a 24-well plate positioned in the center of the light beam (405 nm LED Light, Prizmatix, UHP—F-5-405) placed at the appropriate distance necessary to achieve the desired light intensity of 304 mW cm-2, 146 mW cm2 or 87 mW cm2, as measured with a handheld digital power meter console coupled to an S415C thermal power sensor head (Thorlabs, Newton, MA, USA). The temperature during irradiation was monitored using a thermocouple probe (Model SC-TT-K-30-36-PP; Omega Engineering, Inc., Stanford, CT, USA). Samples were agitated during irradiation. Dark controls were prepared as previously described except that no irradiation was provided.\n(§2) For MIC determination, samples treated with a range of concentrations of the different MM, as described above and were irradiated one at a time for 5 min at 146 mW cm^−2 (43.8 J cm^−2), after which irradiated aliquots were collected and inoculated into 1 mL MHB in a 2 mL microcentrifuge tube. Samples were incubated overnight at 30 or 37 ° C, depending on the strain, without agitation. Corresponding non-irradiated samples and negative controls (without bacteria) were also included. The following day, cultures were inspected for growth and the MIC was identified. The experimental procedure used to determine the MIC of visible light-activated MMs is schematically depicted in FIG. 26."}, "[7]": {"system": "S. aureus", "assay": "MIC, S. aureus", "format": "cell-based, Staphylococcus aureus", "conditions": "S. aureus, broth microdilution", "experimental": "as §1, §2"}, "[8]": {"system": "A. baumannii", "assay": "MIC, A. baumannii", "format": "cell-based, Acinetobacter baumannii", "conditions": "Acinetobacter baumannii, read-out: Antibiotic MIC", "experimental": "as §1, §2"}}, "data": [{"compound": "CO[C@@H]1[C@@H](OC(N)=O)[C@@H](O)[C@H](Oc2ccc3c(O)c(NC(=O)c4ccc(O)c(CC=C(C)C)c4)c(=O)oc3c2C)OC1(C)C", "note": "[Novobiocin]", "values": [{"measurement": "MIC", "setting": "[1]", "value": 64, "unit": "µg/mL"}, {"measurement": "potentiation of antibiotic by MM pre-treatment", "setting": "[2]; E. coli", "value": "up to 64 fold"}, {"measurement": "FIC index with MM", "setting": "[2]; E. coli, MM and novobiocin", "value": "≤ 0.5"}, {"measurement": "antibiotic MIC after pre-treatment with MM 1", "setting": "[2]; E. coli, light-activated MM 1", "value": 0.0075, "unit": "µg/mL"}, {"measurement": "antibiotic MIC after pre-treatment with MM 5", "setting": "[2]; E. coli, light-activated MM 5", "value": 0.0075, "unit": "µg/mL"}, {"measurement": "antibiotic MIC after pre-treatment with MM 6", "setting": "[2]; E. coli, light-activated MM 6", "value": 0.015, "unit": "µg/mL"}, {"measurement": "MIC", "setting": "[2]; Escherichia coli, 18 h, read-out: antibiotic MIC alone", "value": 0.48, "unit": "µg/mL"}]}, {"compound": "COc1cc2c(c3ccccc13)/C(=C1\\c3ccccc3Sc3ccc(NCCN(C)C)cc31)[C@H](C)C2", "note": "(racemic) [DL-5-872]", "values": [{"measurement": "estimated rotation rate after light activation", "setting": "[3]", "value": 3, "unit": "MHz"}]}, {"compound": "OC(Cn1cncn1)(Cn1cncn1)c1ccc(F)cc1F", "note": "[Fluconazole (FLC), Fluconazole]", "values": [{"measurement": "MIC", "setting": "[4]", "value": 0.5, "unit": "µg/mL"}]}, {"compound": "c1ccc(-c2ccccn2)nc1", "note": "[2,2′-dipyridyl]", "values": [{"measurement": "effect of scavenger on MM-induced ROS generation", "setting": "[5]", "value": "did not impact MM-induced ROS generation"}, {"measurement": "effect of scavenger on MM-induced killing", "setting": "[5]", "value": "mitigation of MM-induced killing"}]}, {"compound": "Gentamicin [reference compound]", "values": [{"measurement": "Antibiotic MIC", "setting": "[1]", "value": 1, "unit": "μg per mL"}, {"measurement": "Antibiotic MIC", "setting": "[6]; P. aeruginosa, broth microdilution", "value": 1, "unit": "μg per mL"}, {"measurement": "Antibiotic MIC", "setting": "[7]", "value": 2, "unit": "μg per mL"}]}, {"compound": "C[C@@H]1Cc2ccc3c(NCCN)cccc3c2C1=C1c2ccccc2Sc2ccccc21", "note": "(racemic) [DL-5-903]", "values": [{"measurement": "estimated rotation rate after light activation", "setting": "[3]", "value": 3, "unit": "MHz"}]}, {"compound": "CC1(C)S[C@@H]2[C@H](NC(=O)[C@H](N)c3ccccc3)C(=O)N2[C@H]1C(=O)O", "note": "[Ampicillin, reference compound]", "values": [{"measurement": "MIC", "setting": "[1]", "value": 0.063, "unit": "µg/mL"}]}, {"compound": "CN(C)[C@@H]1C(O)=C(C(N)=O)C(=O)[C@@]2(O)C(O)=C3C(=O)c4c(O)cccc4[C@@](C)(O)[C@H]3C[C@@H]12", "note": "[Tetracycline, reference compound]", "values": [{"measurement": "MIC", "setting": "[8]", "value": 8, "unit": "µg/mL"}]}, {"compound": "COc1cc(Cc2cnc(N)nc2N)cc(OC)c1OC", "note": "[Trimethoprim, reference compound]", "values": [{"measurement": "MIC", "setting": "[1]", "value": 1, "unit": "µg/mL"}, {"measurement": "MIC", "setting": "[6]; Pseudomonas aeruginosa, read-out: Antibiotic MIC", "value": 128, "unit": "µg/mL"}]}, {"compound": "O=C(O)c1cn(C2CC2)c2cc(N3CCNCC3)c(F)cc2c1=O", "note": "[Ciprofloxacin, reference compound]", "values": [{"measurement": "MIC", "setting": "[1]", "value": 0.008, "unit": "µg/mL"}]}, {"compound": "C[C@@H]1Cc2ccc3c(N(C)CCN(C)C)cccc3c2C1=C1c2ccccc2Sc2ccccc21", "note": "(racemic) [DL-5-902]", "values": [{"measurement": "estimated rotation rate after light activation", "setting": "[3]", "value": 3, "unit": "MHz"}]}, {"compound": "Nc1nc(=O)[nH]cc1F", "note": "[5-Fluorocytosine (5-FC), 5-Fluorocytosine]", "values": [{"measurement": "MIC", "setting": "[4]", "value": 1, "unit": "µg/mL"}]}, {"compound": "C[C@@H]1Cc2ccc3c(NCCN(C)C)cccc3c2C1=C1c2ccccc2Sc2ccccc21", "note": "(racemic) [DL-5-901]", "values": [{"measurement": "estimated rotation rate after light activation", "setting": "[3]", "value": 3, "unit": "MHz"}]}, {"compound": "CC1(C)CC(NC(=O)C[P+](c2ccccc2)(c2ccccc2)c2ccccc2)CC(C)(C)N1[O]", "note": "[MitoTEMPO]", "values": [{"measurement": "effect of scavenger on MM-induced ROS generation", "setting": "[5]", "value": "reduced ROS generation"}, {"measurement": "effect of scavenger on MM-induced killing", "setting": "[5]", "value": "did not affect survival following MM treatment"}]}, {"compound": "C[C@@H]1CSc2ccc3ccccc3c2/C1=C1\\c2ccccc2Sc2cc(NCCN(C)C)ccc21", "note": "[ARV-3-202, reference compound]", "values": [{"measurement": "estimated rotation rate of slow MM", "setting": "[3]", "value": "~ 10^−6 Hz"}]}]}
